We go through 59 molecules from US8466176B2 (priority 2008, dated 2013).

The first data set in a line: logP(HCOOH) reported with HPLC/MS. The settings on record: HCOOH (formic acid), logP(HCOOH), HPLC/MS.
Broadly, the chromatographic logP is a lipophilicity value derived from retention on a column. A higher chromatographic logP goes with higher lipophilicity. As to `CSc1cccc(C(=NOCc2cccc(N)n2)c2nnnn2C)c1` [6-{[({[3-(methylsulfanyl)phenyl](1-methyl-1H-tetrazol-5-yl)methylene}amino)oxy]methyl}pyridin-2-amine], the chromatographic logP came to 1.42.
`CCCCCCN(C=O)c1cccc(C)[n+]1[O-]` [N-hexyl-N-(6-methyl-1-oxidopyridin-2-yl)formamide] gave a chromatographic logP of 1.82.
`Cc1cccc(NC(=O)C(C)(C)C)n1` [2,2-dimethyl-N-(6-methylpyridin-2-yl)propanamide] came in with a chromatographic logP of 1.2.
For `OCc1nc(Br)ccc1F` [(6-bromo-3-fluoropyridin-2-yl)methanol], the chromatographic logP stood at 0.92.
`Cn1nnnc1C(=NOCc1cccc(C=NO)n1)c1ccccc1` [Example 177, N-({6-[(hydroxyimino)methyl]pyridin-2-yl}methoxy)-1-(1-methyl-1H-tetrazol-5-yl)-1-phenylmethanimine]: the chromatographic logP turned out to be 2.16.
On to `Cc1sc(Br)nc1CO` [(2-bromo-5-methyl-1,3-thiazol-4-yl)methanol], for which the chromatographic logP was found to be 1.1.
`CN(C)c1cccc(C(=NO)c2nnnn2C)c1` [3-[(hydroxyimino)(1-methyl-1H-tetrazol-5-yl)methyl]-N,N-dimethylaniline]: the chromatographic logP came out at 1.17.
The molecule `Cn1nnnc1C(=NOCc1csc(C#CCOCc2ccccc2)n1)c1ccccc1` [Example 263, N-({2-[3-(benzyloxy)prop-1-yn-1-yl]-1,3-thiazol-4-yl}methoxy)-1-(1-methyl-1H-tetrazol-5-yl)-1-phenylmethanimine] came in with a chromatographic logP of 4.04.
Turning to `COc1ccc(CON=C(c2ccccc2)c2nnnn2C)nc1Br` [Example 125, N-[(6-bromo-5-methoxypyridin-2-yl)methoxy]-1-(1-methyl-1H-tetrazol-5-yl)-1-phenylmethanimine], the chromatographic logP is 3.13.
`Cc1cccc(NC(=O)C(C)(C)C)[n+]1[O-]` [2,2-dimethyl-N-(6-methyl-1-oxidopyridin-2-yl)propanamide] returned a chromatographic logP of 1.5.
The molecule `CC(C)(C)OC(=O)N(CCC1CCCCC1)c1cccc(CBr)n1` [tert-butyl [6-(bromomethyl)pyridin-2-yl](2-cyclohexylethyl)carbamate] gave a chromatographic logP of 6.79.

The data set is the same for the next values; noted with them: logP(HCOOH), HPLC/MS.
On to `Cn1nnnc1C(=NOCc1cccc(C=O)n1)c1ccccc1` [Example 174, 6-[({[(1-methyl-1H-tetrazol-5-yl)(phenyl)methylene]amino}oxy)methyl]pyridine-2-carbaldehyde], for which the chromatographic logP came out at 2.54.
`Cc1cccc(NC=O)n1` [N-(6-methylpyridin-2-yl)formamide] returned a chromatographic logP of 0.45.

Staying with this data set, now noted: method [a]: HPLC on reversed phase columns, pH 2.3 with 0.1% phosphoric acid and acetonitrile as eluent.
On to `CCCC#Cc1nc(CON=C(c2ccccc2)c2nnnn2C)cs1` [Example 261], for which the log p is 3.89^[a].
Take `Cn1nnnc1C(=NOCc1cccc(NCCCCC2CCCCC2)n1)c1ccccc1` [Example 180]: the log p was 3.55^[a].
With `Cn1nnnc1C(=NOCc1cccc(NCCCC2CCCCC2)n1)c1ccccc1` [Example 200], the log p was 3.17^[a].
On the same count and under the same terms, next, `Cn1nnnc1C(=NOCc1cccc(C=NN=CC2CC=CCC2)n1)c1ccccc1` (stereo not drawn) [Example 201]: 4.16^[a].

The same data set, now with this note: method [b]: LC-MS at pH 2.7, 0.1% formic acid in water and acetonitrile, linear gradient 10% to 95% acetonitrile.
With `Cn1nnnc1C(=NOCc1nc(C#CCCC2CCCCC2)ccc1F)c1ccccc1` [Example 107], the log p was 5.68^[b].
`Cn1nnnc1C(=NOCc1cccc(CNC(=O)C(C)(C)C)n1)c1ccccc1` [Example 55]: the log p is 2.58^[b].
Regarding `CCCCC#Cc1nc(CON=C(c2ccccc2)c2nnnn2C)c(Cl)s1` [Example 117], the log p is 5.22^[b].
For `Cn1nnnc1C(=NOCc1nc(C#CCCCc2ccccc2)sc1Cl)c1ccccc1` [Example 123], the log p is 5.56^[b].
Turning to `CC(=O)N(CCC1CCCCC1)c1cccc(CON=C(c2ccccc2)c2nnnn2C)n1` [Example 76], the log p is 4.16^[b].
Still for that read-out and setting: next, `CCCCC(=O)NCc1cccc(CON=C(c2ccccc2)c2nnnn2C)n1` [Example 57]: 2.56^[b].

Still in this data set, the particulars now being: method [b]: LC-MS at pH 2.7 with 0.1% formic acid in water and acetonitrile (0.1% formic acid), linear gradient 10% to 95% acetonitrile.
Turning to `Cn1nnnc1C(=NOCc1cccc(NC2CC3CCC2C3)n1)c1ccccc1` (stereo not drawn) [Example 300], the log p is 2.45^[b].
The same measure, in the same setting: the result for `Cn1nnnc1C(=NOCc1cccc(NOCC2CCCCC2)n1)c1ccccc1` [Example 284] reads 4.44^[b].
With `CSc1cccc(C(=NOCc2csc(C#CC3CCCCC3)n2)c2nnnn2C)c1` [Example 304], the log p is 5.29^[b].
For the molecule `Cn1nnnc1C(=NOCc1cccc(NOCc2ccccc2)n1)c1ccccc1` [Example 285], the log p is 3.14^[b].
`CC(C)CSC(=O)Nc1cccc(CON=C(c2ccccc2)c2nnnn2C)n1` [Example 308]: the log p is 4.21^[b].
Regarding `CCCCC#Cc1nc(CON=C(c2cccc(SC)c2)c2nnnn2C)cs1` [Example 301], the log p was 4.78^[b].
On to `CCOc1ccc(C#Cc2nc(CON=C(c3cccc(F)c3)c3nnnn3C)cs2)cc1` [Example 294], for which the log p is 4.62^[b].
The same measure, in the same setting: the result for `CSc1cccc(C(=NOCc2csc(NCCCc3ccccc3)n2)c2nnnn2C)c1` [Example 305] reads 3.71^[b].

Still in this data set, the particulars now being: method [b]: LC-MS, pH 2.7 with 0.1% formic acid in water and acetonitrile (0.1% formic acid), linear gradient 10% to 95% acetonitrile.
On to `Cn1nnnc1C(=NOCc1cccc(NCCOC2CCCCC2)n1)c1ccccc1` [Example 203], for which the log p was 2.35^[b].
As for `CCCC#Cc1nc(CON=C(c2cccc(F)c2)c2nnnn2C)cs1` [Example 151], the log p is 4.09^[b].
As for `COC(C)(C)C#Cc1nc(CON=C(c2ccccc2)c2nnnn2C)cs1` [Example 196], the log p is 3.53^[b].
Same read-out and setting: the result for `COC(C)(C)C#Cc1cccc(CON=C(c2ccccc2)c2nnnn2C)n1` [Example 240] reads 3.42^[b]; that for `Cc1ccc(C#Cc2cccc(CON=C(c3ccccc3)c3nnnn3C)n2)cc1` [Example 231], 4.44^[b].
Same read-out and setting: next, `CC(C)c1ccc(C#Cc2cccc(CON=C(c3ccccc3)c3nnnn3C)n2)cc1` [Example 229]: 5.14^[b].
Regarding `Cn1nnnc1C(=NOCc1cccc(C#CCCCC#N)n1)c1ccccc1` [Example 239], the log p is 2.9^[b].
`COC(=O)CCCC#Cc1nc(CON=C(c2ccccc2)c2nnnn2C)cs1` [Example 195]: the log p was 3.33^[b].
In the case of `CCCCc1ccc(C#Cc2nc(CON=C(c3ccccc3)c3nnnn3C)cs2)cc1` [Example 202], the log p was 5.82^[b].
`Cn1nnnc1C(=NOCc1cccc(C#CCN2CCOCC2)n1)c1ccccc1` [Example 242]: the log p is 1.44^[b].
For `CCCCC#Cc1nc(CON=C(c2ccccc2)n2nnnc2C)cs1` [Example 164], the log p is 4.49^[b].
On the same count and under the same terms, next, `Cc1nnnn1C(=NOCc1csc(C#CCCc2ccccc2)n1)c1ccccc1` [Example 168]: 4.44^[b]; `CCCOc1ccc(C#Cc2nc(CON=C(c3ccccc3)c3nnnn3C)cs2)cc1` [Example 256]: 5.03^[b].
With `Cn1nnnc1C(=NOCc1cccc(C#Cc2cccs2)n1)c1ccccc1` [Example 206], the log p was 3.94^[b].
With `CCOc1ccc(C#Cc2cccc(CON=C(c3ccccc3)c3nnnn3C)n2)cc1` [Example 227], the log p is 4.41^[b].
On the same count and under the same terms, next, `CCCCCC#Cc1nc(CON=C(c2cccc(F)c2)c2nnnn2C)cs1` [Example 152]: 4.94^[b]; `CN(C)c1ccc(C#Cc2cccc(CON=C(c3ccccc3)c3nnnn3C)n2)cc1` [Example 251]: 4.29^[b].
For `CCCc1ccc(C#Cc2cccc(CON=C(c3ccccc3)c3nnnn3C)n2)cc1` [Example 244], the log p is 5.23^[b].
`Cn1nnnc1C(=NOCc1csc(C#CCC2CCCC2)n1)c1cccc(F)c1` [Example 153]: the log p is 5.03^[b].
For `Cn1nnnc1C(=NOCc1cccc(C#Cc2ccsc2)n1)c1ccccc1` [Example 207], the log p was 3.83^[b].
For the molecule `COc1ccc(C#Cc2cccc(CON=C(c3ccccc3)c3nnnn3C)n2)cc1` [Example 228], the log p is 4.01^[b].
On to `Cn1nnnc1C(=NOCc1cccc(C#Cc2ccc(C(F)(F)F)cc2)n1)c1ccccc1` [Example 217], for which the log p is 4.65^[b].
Consider `Cn1nnnc1C(=NOCc1csc(C#CCCCc2ccccc2)n1)c1cccc(F)c1` [Example 150], for which the log p is 4.89^[b].
For the molecule `Cc1nnnn1C(=NOCc1csc(C#CCCCC#N)n1)c1ccccc1` [Example 171], the log p was 3.02^[b].
For the molecule `Cn1nnnc1C(=NOCc1cccc(C#CCc2ccccc2)n1)c1ccccc1` [Example 238], the log p is 4.09^[b].
Take `CCc1ccc(C#Cc2nc(CON=C(c3ccccc3)c3nnnn3C)ccc2OC)cc1` [Example 134]: the log p is 4.56^[b].

Still in this data set, the particulars now being: reversed phase HPLC column, pH 2.7, log p, method [b]: LC-MS at pH 2.7, 0.1% formic acid in water and acetonitrile, linear gradient 10% to 95% acetonitrile.
In the case of `COc1ccc(CON=C(c2ccccc2)c2nnnn2C)nc1Br` [Example 125, N-[(6-bromo-5-methoxypyridin-2-yl)methoxy]-1-(1-methyl-1H-tetrazol-5-yl)-1-phenylmethanimine], the chromatographic logP was determined as 3.13.

Still in this data set, the particulars now being: reversed phase HPLC column, pH 2.7, log p, method [b]: LC-MS at pH 2.7 with 0.1% formic acid in water and acetonitrile (0.1% formic acid), linear gradient 10% to 95% acetonitrile.
`CCCCCCNc1cccc(CON=C(c2cccc(N(C)C)c2)c2nnnn2C)n1` [Example 311] registered a chromatographic logP of 2.44.
Molecule `CSc1cccc(C(=NOCc2csc(C#CC3CCCC3)n2)c2nnnn2C)c1` [Example 302] gave a chromatographic logP of 4.86.

The data set is the same for the next values; noted with them: reversed phase HPLC column, pH 2.7, log p, method [b]: LC-MS, pH 2.7 with 0.1% formic acid in water and acetonitrile (0.1% formic acid), linear gradient 10% to 95% acetonitrile.
For the molecule `Cn1nnnc1C(=NOCc1csc(C#CCOCc2ccccc2)n1)c1ccccc1` [Example 263, N-({2-[3-(benzyloxy)prop-1-yn-1-yl]-1,3-thiazol-4-yl}methoxy)-1-(1-methyl-1H-tetrazol-5-yl)-1-phenylmethanimine], the chromatographic logP is 4.04.

Still in this data set, the particulars now being: reversed phase HPLC columns, pH 2.3, log p, method [a]: HPLC on reversed phase columns, pH 2.3 with 0.1% phosphoric acid and acetonitrile as eluent.
As for `Cn1nnnc1C(=NOCc1cccc(C=O)n1)c1ccccc1` [Example 174, 6-[({[(1-methyl-1H-tetrazol-5-yl)(phenyl)methylene]amino}oxy)methyl]pyridine-2-carbaldehyde], the chromatographic logP was 2.54.
In turn, `Cn1nnnc1C(=NOCc1cccc(C=NO)n1)c1ccccc1` [Example 177, N-({6-[(hydroxyimino)methyl]pyridin-2-yl}methoxy)-1-(1-methyl-1H-tetrazol-5-yl)-1-phenylmethanimine] displayed a chromatographic logP of 2.16.
